EP0956028B1, “[…] INHIBITION OF […] GROWTH” (Purdue Research Foundation, priority 1996, dated 1998)

Tested on: A549 human lung carcinoma cells
Assay: Tumor cell proliferation (cell count), indirect co-culture with submucosal tissue membrane
Type: cell-based
Experimental: Carcinoma ceil lines including A549 (human lung adenocarcinoma), MCF-7 (human breast carcinoma) and human colorectal carcinoma cell lines were obtained from American Type Cell Culture (ATCC). Cell cultures were routinely performed at 37°C in an incubator supplemented with 5% CO2 and 95% air. Media used were F-12 pius 10° o FBS (fetal bovine serum) (Gibco BRL) for the A549 cells and RPMI plus 10% FBS (Gibco BRL) for both the MCF-7 and colonic carcinoma cell lines. The inhibition of tumor cell growth on several different forms of submucosal tissue including PA-ST (submucosal tissue sterilized in peracetic acid), Native submucosal tissue (no further treatment after dissection), Gamma irradiated submucosal tissue and solubilized submucosal tissue was assessed.
Cancer cells were cultured in the presence of various forms of intestinal submucosal tissue at 37°C in an incubator supplemented with 5% CO2 and 95% air using the following procedures: • 1. Direct Contact: Intestinal submucosal tissue and the cultured cells physically contact one another. • 2. Indirect Contact: Intestinal submucosal tissue and the cultured cells are separated by a stainless steel mesh. • 3. Solubilized intestinal submucosal tissue added to the culture media. • 4. Cells are cultured on solubilized intestinal submucosa coated culture plate. The coating was applied by placing 1 ml of solubilized intestinal submucosal tissue in a 35mm culture plate, heating at 37°C for 2 hours, removing the excess intestinal submucosal tissue fluid by aspiration and washing the coated plates once with culture media.
• 1. […]
Tumor cells were plated at a cell density of approximately 5x10^5 cells/dish of 60 mm tissue culture dishes and grown until they reached about 50% confluence. Cell cultures were then subjected to the following treatments in triplicates: 1) control, cells grown in media only; 2) addition of different quantities of solubilized submucosal tissue (200-800 µl); 3) co-culture with submucosal tissue membranes of different sizes (indirect co-culture). […]

CC(=O)OO [Peracidic Acid, peracetic acid]
Cell Count (x10^5) (day 2 of treatment) (100 µl of Peracidic Acid, A549): 18.81 ± 2.59 x10^5
% of Control (100 µl of Peracidic Acid, A549 cell count, day 2 of treatment): 97%
inhibitory effect on cell proliferation (added exogenously to tumor cells): no significant inhibitory effect
